Values joined by “and” are separate entries in the source; they are usually repeats but may differ in a detail not shown here. Identical values can stand only once.
Tested on: 233499-124-R-J3-PDC complex spheroid viability
Assay: Anticancer human tumor 233499-124-R-J3-PDC patient-derived colon adenocarcinoma cell line growth inhibition [CLK]
Details: for viability, T/C: stronger effect = lower value
Excerpt: A high-throughput screen of multi-cell type tumor spheroids was designed to identify active combinations of […] and targeted small molecules. Complex spheroids include a stromal component modeled by human endothelial cells (HUVEC) and fibroblasts modeled by human mesenchymal stem cells (MSCs). The concentration ranges selected for each drug and investigational agent were based upon clinically achievable concentrations if the clinical Cmax of the agent was known.
Compounds. The drugs and investigational agents: cirtuvivint (SM08502; NSC835563), CC-671 (NSC850746), vemurafenib (NSC761431), tapotoclax (NSC804041), sotorasib (NSC818433), adagrasib (NSC831453), MRTX-1133 (NSC836407), BAY2416964 (NSC825713), copanlisib (NSC816437), inavolisib (NSC800729), abemaciclib (NSC768073), osimertinib (NSC779217), entinostat (NSC756642), eltanexor (KPT-8602, NSC794443), venetoclax (NSC766270), ceralasertib (NSC777638), bortezomib (NSC756655), olaparib (NSC753686), talazoparib (NSC767125), alisertib (NSC759677), peposertib (NSC802822), gemcitabine (NSC613327), 5-fluorouracil (NSC19893), SN-38 (NSC673596), oxaliplatin (NSC266046), paclitaxel (NSC125973), and doxorubicin (NSC123127), were obtained from the National Cancer Institute (NCI) Developmental Therapeutics Program Chemical Repository. The FDA-approved anticancer drug set is available from the Developmental Therapeutics Program at https://dtp.cancer.gov/organization/dscb/obtaining/available plates.htm. […] The stock solutions were prepared in dimethyl sulfoxide (DMSO, Sigma-Aldrich, St. Louis, MO, cat. D2650), except for the platinum complexes which were prepared in saline (Quality Biological, Gaithersburg, MD, cat. 114-055-101), at 800-fold the tested concentration and stored at -70 degrees C prior to their use. All drugs and investigational agents were tested over a range starting from a high concentration at or near the clinical Cmax and decreasing in half-log increments. If the clinical Cmax for an agent had not been determined, the highest concentration tested was 10 microM.
Cell Culture. All cells were maintained in an incubator at 37 degrees C and 5% CO2 with 95% humidity. The PDC lines were cultured according to standard operating procedures established by the NCI PDMR. Briefly, all PDCs were thawed and cultured in Matrigel-coated flasks prepared with a working solution of 1X Ham's F-12 nutrient mix, without supplementation (Invitrogen, Waltham, MA, cat. 11765054), 100 U/mL penicillin-streptomycin (Invitrogen, cat. 15140122), and 2.5% Matrigel (Corning Inc., Corning, NY, cat. 354248) for the first three passages. The 947758-054-R-J2-PDC line was cultured in 6B/Colon 1A media, which includes advanced DMEM/F-12 (Thermo Fisher Scientific, cat. 12634028), 10 mM HEPES (Thermo Fisher Scientific, cat. 15630080), 1X GlutaMAX supplement (Thermo Fisher Scientific, cat. 35050061), 0.1 mg/mL primocin (InvivoGen, cat. ant-pm-2), 10% defined fetal bovine serum, heat inactivated (HyClone Laboratories Inc., cat. SH30070.03HI), 1.25 mM N-Acetyl-L-cysteine (Sigma-Aldrich, cat. A9165), 10 mM nicotinamide (Sigma-Aldrich, cat. N0636), 1X B-27 supplement (Thermo Fisher Scientific, cat. 17504044), 1X N-2 supplement (Thermo Fisher Scientific, cat. 17502048), and 10 microM Y-27632 dihydrochloride (Tocris Bioscience, cat. 1254). The 876862-298-R-J1-PDC was cultured in 6E media, which includes all 6B/Colon 1A media components plus 50% L-WRN conditioned media (ATCC, cat. CRL-3276), 50 ng/mL recombinant human EGF recombinant protein (hEGF; Thermo Fisher Scientific, cat. PHG0311), 10 ng/mL recombinant human fibroblast growth factor 10 (hGFG-10; PeproTech, cat. 100-26), 1 ng/mL recombinant human fibroblast growth factor 2 (hFGF-2; PeproTech, cat. 100-18B), and 1 µM prostaglandin E2 (PGE2; Tocris, cat. 2296). The 227483-062-R1-J1-PDC line was cultured in Panc media, containing all 6E components except hFGF-2, with the addition of 500 nM SB-431542 (Selleckchem, cat. S1067) and 10 nM gastrin (Tocris, cat. 3006). […]

[1] = curve of first compound, second compound 0.0316 µM
[2] = curve of first compound, second compound 0.1 µM
[3] = curve of first compound, second compound 0.316 µM
[4] = curve of first compound, second compound 1 µM
[5] = curve of first compound, second compound 3.16 µM
[6] = curve of first compound, second compound 10 µM
[7] = second compound 0.0316 µM, first compound 0.0316 µM
[8] = second compound 0.0316 µM, first compound 0.1 µM
[9] = second compound 0.0316 µM, first compound 0.316 µM
[10] = second compound 0.0316 µM, first compound 1 µM
[11] = second compound 0.0316 µM, first compound 3.16 µM
[12] = second compound 0.0316 µM, first compound 10 µM
[13] = second compound 0.1 µM, first compound 0.0316 µM
[14] = second compound 0.1 µM, first compound 0.1 µM
[15] = second compound 0.1 µM, first compound 0.316 µM
[16] = second compound 0.1 µM, first compound 1 µM
[17] = second compound 0.1 µM, first compound 3.16 µM
[18] = second compound 0.1 µM, first compound 10 µM
[19] = second compound 0.316 µM, first compound 0.0316 µM
[20] = second compound 0.316 µM, first compound 0.1 µM
[21] = second compound 0.316 µM, first compound 0.316 µM
[22] = second compound 0.316 µM, first compound 1 µM
[23] = second compound 0.316 µM, first compound 3.16 µM
[24] = second compound 0.316 µM, first compound 10 µM
[25] = second compound 1 µM, first compound 0.0316 µM
[26] = second compound 1 µM, first compound 0.1 µM
[27] = second compound 1 µM, first compound 0.316 µM
[28] = second compound 1 µM, first compound 1 µM
[29] = second compound 1 µM, first compound 3.16 µM
[30] = second compound 1 µM, first compound 10 µM
[31] = second compound 3.16 µM, first compound 0.0316 µM
[32] = second compound 3.16 µM, first compound 0.1 µM
[33] = second compound 3.16 µM, first compound 0.316 µM
[34] = second compound 3.16 µM, first compound 1 µM
[35] = second compound 3.16 µM, first compound 3.16 µM
[36] = second compound 3.16 µM, first compound 10 µM
[37] = second compound 10 µM, first compound 0.0316 µM
[38] = second compound 10 µM, first compound 0.1 µM
[39] = second compound 10 µM, first compound 0.316 µM
[40] = second compound 10 µM, first compound 1 µM
[41] = second compound 10 µM, first compound 3.16 µM
[42] = second compound 10 µM, first compound 10 µM
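Further: spheroids exposed to the drug combinations for seven days.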
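Wherever viability, T/C is given: percent viability relative to DMSO vehicle control wells taken as 100%.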

CC1(C)CCC(CN2CCN(c3ccc(C(=O)NS(=O)(=O)c4ccc(NCC5CCOCC5)c([N+](=O)[O-])c4)c(Oc4cnc5[nH]ccc5c4)c3)CC2)=C(c2ccc(Cl)cc2)C1 + CNC(=O)c1ccc(Nc2nc(OC3CCCC3)c3c(-c4ccc5nc(C)oc5c4)c[nH]c3n2)c(OC)c1
IC50 [1]: 6.79 µM
IC50 [2]: 3.35 µM
IC50 [3]: 3.14 µM
IC50 [4]: 4.67 µM
IC50 [5]: 2.87 µM
IC50 [6]: 4.47 µM
viability, T/C [7]: 79.5%
viability, T/C [8]: 96.9%
viability, T/C [9]: 94.3%
viability, T/C [10]: 106%
viability, T/C [11]: 96.5%
viability, T/C [12]: 27.2%
viability, T/C [13]: 68.9%
viability, T/C [14]: 70.2%
viability, T/C [15]: 85%
viability, T/C [16]: 76.2%
viability, T/C [17]: 51.6%
viability, T/C [18]: 20.8%
viability, T/C [19]: 76.4%
viability, T/C [20]: 79.6%
viability, T/C [21]: 81.3%
viability, T/C [22]: 76.8%
viability, T/C [23]: 49.9%
viability, T/C [24]: 25.1%
viability, T/C [25]: 74.3%
viability, T/C [26]: 90%
viability, T/C [27]: 72.1%
viability, T/C [28]: 68.4%
viability, T/C [29]: 60.1%
viability, T/C [30]: 33.5%
viability, T/C [31]: 77.1%
viability, T/C [32]: 66.5%
viability, T/C [33]: 76%
viability, T/C [34]: 76.6%
viability, T/C [35]: 47.8%
viability, T/C [36]: 24.2%
viability, T/C [37]: 70.1%
viability, T/C [38]: 71.9%
viability, T/C [39]: 76.8%
viability, T/C [40]: 74.9%
viability, T/C [41]: 59%
viability, T/C [42]: 29.2%

C=C(F)C(=O)N1CCN(c2nc(OCC3CCCN3C)nc3c2CCN(c2cccc4cccc(Cl)c24)C3)CC1CC#N (centres undefined)
viability, T/C (compound 0.0316 µM): 99.9% and 96.2%
viability, T/C (compound 0.1 µM): 86.9% and 90.1%
viability, T/C (compound 0.316 µM): 97% and 99.1%
viability, T/C (compound 1 µM): 95.4% and 97.3%
viability, T/C (compound 3.16 µM): 94.6% and 89.2%
viability, T/C (compound 10 µM): 38% and 87.9%
IC50 (curve of compound): 7.84 µM and > 10 µM

Nc1ccn(C2OC(CO)C(O)C2(F)F)c(=O)n1 (centres undefined) + CN1CCN(c2cc(C(=O)Nc3cc4cc(-c5cnn(C)c5)ccc4cn3)ccn2)CC1
IC50 [1]: 0.313 µM
IC50 [2]: 0.217 µM
IC50 [3]: 0.168 µM
IC50 [4]: < 0.0316 µM
IC50 [5]: < 0.0316 µM
IC50 [6]: < 0.0316 µM
viability, T/C [7]: 80%
viability, T/C [8]: 95.4%
viability, T/C [9]: 49.6%
viability, T/C [10]: 34.2%
viability, T/C [11]: 37%
viability, T/C [12]: 27.2%
viability, T/C [13]: 101%
viability, T/C [14]: 92.1%
viability, T/C [15]: 29.6%
viability, T/C [16]: 19.2%
viability, T/C [17]: 23.2%
viability, T/C [18]: 21.4%
viability, T/C [19]: 101%
viability, T/C [20]: 71%
viability, T/C [21]: 24.7%
viability, T/C [22]: 7.57%
viability, T/C [23]: 12.1%
viability, T/C [24]: 5.63%
viability, T/C [25]: 1.31%
viability, T/C [26]: 0.86%
viability, T/C [27]: 0.41%
viability, T/C [28]: 1.47%
viability, T/C [29]: 0.37%
viability, T/C [30]: 0.46%
viability, T/C [31]: 0.7%
viability, T/C [32]: 0.69%
viability, T/C [33]: 0.53%
viability, T/C [34]: 0.46%
viability, T/C [35]: 0.48%
viability, T/C [36]: 0.62%
viability, T/C [37]: 0.45%
viability, T/C [38]: 0.5%
viability, T/C [39]: 0.68%
viability, T/C [40]: 0.58%
viability, T/C [41]: 0.44%
viability, T/C [42]: 0.38%

CC1COCCN1c1cc(C2(S(C)(=N)=O)CC2)nc(-c2ccnc3[nH]ccc23)n1 (centres undefined)
viability, T/C (compound 0.0316 µM): 101% and 95.8%
viability, T/C (compound 0.1 µM): 101% and 91.5%
viability, T/C (compound 0.316 µM): 98.3% and 92.1%
viability, T/C (compound 1 µM): 101% and 74.8%
viability, T/C (compound 3.16 µM): 99.7% and 89.2%
viability, T/C (compound 10 µM): 81.4% and 53.9%
IC50 (curve of compound): > 10 µM

C=CC(=O)Nc1cc(Nc2nccc(-c3cn(C)c4ccccc34)n2)c(OC)cc1N(C)CCN(C)C
viability, T/C (compound 0.000949 µM): 92.5% and 102%
viability, T/C (compound 0.003 µM): 91.5% and 98.6%
viability, T/C (compound 0.00949 µM): 99.7% and 103%
viability, T/C (compound 0.03 µM): 96.9% and 87.8%
viability, T/C (compound 0.0949 µM): 86% and 93.7%
viability, T/C (compound 0.3 µM): 76.8% and 82.2%
IC50 (curve of compound): > 0.3 µM

CC(=O)O[C@H]1C(=O)[C@@]2(C)[C@H]([C@H](OC(=O)c3ccccc3)[C@]3(O)C[C@H](OC(=O)[C@H](O)[C@@H](NC(=O)c4ccccc4)c4ccccc4)C(C)=C1C3(C)C)[C@]1(OC(C)=O)CO[C@@H]1C[C@@H]2O
viability, T/C (compound 0.0316 µM): 63.2% and 74.1%
viability, T/C (compound 0.1 µM): 38.9% and 31.5%
viability, T/C (compound 0.316 µM): 19.9% and 8.71%
viability, T/C (compound 1 µM): 17.4% and 11%
viability, T/C (compound 3.16 µM): 20.4% and 9.09%
viability, T/C (compound 10 µM): 24.4% and 16.4%
IC50 (curve of compound): 0.0591 µM and 0.0607 µM

COc1ccc([C@@H](O)c2cc(-c3ncnc4cc(N5CCOCC5)ccc34)c(F)cc2Cl)nn1
viability, T/C (compound 0.0316 µM): 103% and 84.3%
viability, T/C (compound 0.1 µM): 106% and 94.1%
viability, T/C (compound 0.316 µM): 109% and 95.4%
viability, T/C (compound 1 µM): 99.8% and 91.2%
viability, T/C (compound 3.16 µM): 96.1% and 92.5%
viability, T/C (compound 10 µM): 83.5% and 79.1%
IC50 (curve of compound): > 10 µM
